Among the data in the supplement of paper PMC10883282 are relative viability values, retold here.

± gives the standard deviation of the averaged measurements.

This experiment relates to KHOS-NP. Briefly: relative viability vs DMSO control (72 h) (fraction); higher = more viable cells. Summed up: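 Densities for seeding sarcoma cell lines into 384-well plates were set to give 80–90% confluence. After 24 h, 2.5 µl of serially diluted compound from source plates of 10 mM to 0.0002 mM went in, and plates stayed 72 h at 37 °C in 5% CO2 with 0.1% DMSO vehicle and a 5 µM positive control. Percent growth from ATPLite readings, averaged over up to triplicate wells, served as relative viability, rescaled so 1 means full and 0 means none.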

As to `CO[C@H]1C[C@@H]2CC[C@@H](C)[C@@](O)(O2)C(=O)C(=O)N2CCCC[C@H]2C(=O)O[C@H]([C@H](C)C[C@@H]2CC[C@@H](OP(C)(C)=O)[C@H](OC)C2)CC(=O)[C@H](C)/C=C(\C)[C@@H](O)[C@@H](OC)C(=O)[C@H](C)C[C@H](C)/C=C/C=C/C=C/1C` [Ridaforolimus], the relative viability is, setting by setting: (0.00017 µM) 1.11 ± 0.033; (0.00051 µM) 1.1 ± 0.011; (0.00152 µM) 1.09 ± 0.015; (0.00457 µM) 1.1 ± 0.016; (0.01372 µM) 1.08 ± 0.03; (0.04115 µM) 1.08 ± 0.033. Moreover, the relative viability stood at 1.07 ± 0.033 (0.1235 µM); 1.06 ± 0.045 (0.3704 µM); 1.07 ± 0.026 (1.111 µM); 1.02 ± 0.032 (3.333 µM); 1.01 ± 0.02 (10 µM).
Turning to `COc1cc2nccc(Oc3ccc(NC(=O)Nc4cc(C)on4)c(Cl)c3)c2cc1OC` [Tivozanib], the relative viability reads like this: (0.00017 µM) 1.08 ± 0.013; (0.00051 µM) 1.06 ± 0.016; (0.00152 µM) 1.06 ± 0.027; (0.00457 µM) 1.08 ± 0.021; (0.01372 µM) 1.074 ± 0.005; (0.04115 µM) 1.06 ± 0.034. In addition, the relative viability runs as follows: (0.1235 µM) 1.09 ± 0.018; (0.3704 µM) 1.05 ± 0.031; (1.111 µM) 1.06 ± 0.023; (3.333 µM) 1.03 ± 0.027; (10 µM) 0.719 ± 0.015.
With `C[C@@H](c1ccc2nccn2c1)n1nnc2ncc(-c3cnn(C)c3)nc21` [Volitinib], the relative viability reads like this: (0.00017 µM) 1.07 ± 0.012; (0.00051 µM) 1.09 ± 0.018; (0.00152 µM) 1.09 ± 0.013; (0.00457 µM) 1.091 ± 0.0095; (0.01372 µM) 1.08 ± 0.015; (0.04115 µM) 1.08 ± 0.024. In addition, the relative viability was 1.07 ± 0.015 (0.1235 µM); 1.06 ± 0.038 (0.3704 µM); 1.04 ± 0.035 (1.111 µM); 1.02 ± 0.011 (3.333 µM); 0.8916 ± 0.004 (10 µM).
Turning to `COc1cc2c(cc1O)CCN[C@]21CS[C@@H]2c3c(OC(C)=O)c(C)c4c(c3[C@H](COC1=O)N1[C@@H]2[C@H]2c3c(cc(C)c(OC)c3O)C[C@@H]([C@@H]1O)N2C)OCO4` [Trabectedin], the relative viability by setting is: (2 pM) 1.11 ± 0.026; (5 pM) 1.11 ± 0.03; (15 pM) 1.11 ± 0.028; (50 pM) 1.09 ± 0.018; (0.00014 µM) 1.04 ± 0.029; (0.00041 µM) 0.0507 ± 0.011. For the same compound, the relative viability runs as follows: (0.0012 µM) 0.0847 ± 0.0079; (0.0037 µM) 0.102 ± 0.0031; (0.011 µM) 0.0529 ± 0.0034; (200 fM) 1.1 ± 0.03; (600 fM) 1.12 ± 0.022.
As to `Cc1nc(-c2cn3c(n2)-c2ccc(-c4cnn(C(C)(C)C(N)=O)c4)cc2OCC3)n(C(C)C)n1` [Taselisib], the relative viability reads like this: (0.00017 µM) 1.04 ± 0.023; (0.00051 µM) 1.039 ± 0.003; (0.00152 µM) 1.03 ± 0.03; (0.00457 µM) 1.02 ± 0.018; (0.01372 µM) 1.042 ± 0.0077; (0.04115 µM) 1.01 ± 0.023. The relative viability (0.1235 µM) amounted to 1.02 ± 0.02; the relative viability (0.3704 µM) stood at 1.03 ± 0.022; the relative viability (1.111 µM) is 0.99 ± 0.035; the relative viability (3.333 µM) is 0.948 ± 0.011; the relative viability (10 µM) amounted to 0.688 ± 0.0095.
As for `COc1cc2c(Oc3ccc4[nH]c(C)cc4c3F)ncnc2cc1OCCCN1CCCC1` [Cediranib], the relative viability is, setting by setting: (0.00017 µM) 1.08 ± 0.025; (0.00051 µM) 1.11 ± 0.02; (0.00152 µM) 1.09 ± 0.013; (0.00457 µM) 1.08 ± 0.015; (0.01372 µM) 1.09 ± 0.018; (0.04115 µM) 1.09 ± 0.014. The relative viability (0.1235 µM) was determined as 1.04 ± 0.027; the relative viability (0.3704 µM) came to 1.07 ± 0.029; the relative viability (1.111 µM) is 1.036 ± 0.0041; the relative viability (3.333 µM) amounted to 1.05 ± 0.016; the relative viability (10 µM) was 1.03 ± 0.023.
Consider `Cc1nc(NC(=O)N2CCC[C@H]2C(N)=O)sc1-c1ccnc(C(C)(C)C(F)(F)F)c1` [Alpelisib], for which the relative viability was determined as 1.07 ± 0.031 (0.00017 µM); 1.073 ± 0.0087 (0.00051 µM); 1.06 ± 0.024 (0.00152 µM); 1.05 ± 0.021 (0.00457 µM); 1.03 ± 0.028 (0.01372 µM); 1.02 ± 0.018 (0.04115 µM). In addition, the relative viability was 1.02 ± 0.067 (0.1235 µM); 1.04 ± 0.014 (0.3704 µM); 0.992 ± 0.053 (1.111 µM); 0.9227 ± 0.0047 (3.333 µM); 0.828 ± 0.049 (10 µM).
Regarding `COc1cc2/c(=N/c3ccc(Br)cc3F)nc[nH]c2cc1OCC1CCN(C)CC1` [Vandetanib], the relative viability was 1.05 ± 0.032 (0.00017 µM); 1.036 ± 0.0034 (0.00051 µM); 1.04 ± 0.014 (0.00152 µM); 1.05 ± 0.018 (0.00457 µM); 1.05 ± 0.045 (0.01372 µM); 1.04 ± 0.029 (0.04115 µM). Also, the relative viability turned out to be 1.05 ± 0.024 (0.1235 µM); 1.03 ± 0.015 (0.3704 µM); 1.02 ± 0.017 (1.111 µM); 0.888 ± 0.044 (3.333 µM); 0.551 ± 0.023 (10 µM).
With `C[C@]1(O)C[C@@H](c2nc(-c3ccc4ccc(-c5ccccc5)nc4c3)c3c(N)nccn32)C1` [Linsitinib], the relative viability is 1.11 ± 0.025 (0.00017 µM); 1.09 ± 0.011 (0.00051 µM); 1.07 ± 0.025 (0.00152 µM); 1.08 ± 0.011 (0.00457 µM); 1.08 ± 0.026 (0.01372 µM); 1.08 ± 0.012 (0.04115 µM). The relative viability by setting is: (0.1235 µM) 1.08 ± 0.029; (0.3704 µM) 1.07 ± 0.05; (1.111 µM) 1.06 ± 0.064; (3.333 µM) 1.02 ± 0.027; (10 µM) 0.8696 ± 0.0082.
Consider `C=CC(=O)N1CCC([C@@H]2CCNc3c(C(N)=O)c(-c4ccc(Oc5ccccc5)cc4)nn32)CC1` [Zanubrutinib], for which the relative viability runs as follows: (0.00017 µM) 1.01 ± 0.015; (0.00051 µM) 1.03 ± 0.024; (0.00152 µM) 1.03 ± 0.032; (0.00457 µM) 1.01 ± 0.015; (0.01372 µM) 1.041 ± 0.0094; (0.04115 µM) 1.05 ± 0.018. In addition, the relative viability reads like this: (0.1235 µM) 1.01 ± 0.013; (0.3704 µM) 1.04 ± 0.015; (1.111 µM) 1.02 ± 0.023; (3.333 µM) 1.01 ± 0.029; (10 µM) 1.05 ± 0.03.
Compound `Cn1cc(-c2cc3c(N4CCN(c5ncc([C@@](C)(N)c6ccc(F)cc6)cn5)CC4)ncnn3c2)cn1` [Avapritinib] yielded a relative viability (0.00017 µM) of 1.021 ± 0.0094; a relative viability (0.00051 µM) of 1.05 ± 0.031; a relative viability (0.00152 µM) of 1.02 ± 0.027; a relative viability (0.00457 µM) of 1.04 ± 0.029; a relative viability (0.01372 µM) of 1.03 ± 0.017; a relative viability (0.04115 µM) of 1.03 ± 0.015. Moreover, the relative viability by setting is: (0.1235 µM) 1 ± 0.022; (0.3704 µM) 0.948 ± 0.041; (1.111 µM) 0.861 ± 0.024; (3.333 µM) 0.685 ± 0.033; (10 µM) 0.586 ± 0.048.
In turn, `CC(=O)Nc1cccc(-n2c(=O)n(C3CC3)c(=O)c3c(Nc4ccc(I)cc4F)n(C)c(=O)c(C)c32)c1` [Trametinib] displayed a relative viability (0.00017 µM) of 1.08 ± 0.012; a relative viability (0.00051 µM) of 1.09 ± 0.014; a relative viability (0.00152 µM) of 1.05 ± 0.019; a relative viability (0.00457 µM) of 0.975 ± 0.048; a relative viability (0.01372 µM) of 0.532 ± 0.055; a relative viability (0.04115 µM) of 0.312 ± 0.013. The relative viability by setting is: (0.1235 µM) 0.278 ± 0.0054; (0.3704 µM) 0.275 ± 0.011; (1.111 µM) 0.256 ± 0.0076; (3.333 µM) 0.25 ± 0.014; (10 µM) 0.231 ± 0.02.
